Where a SMILES comes first, the peptide text is derived from it. Bridges are numbered along the chain shown (N, C = ends).

The experiment has as its system MDA-MB-435. Kind of experiment: Inhibition of alpha3beta1 integrin-dependent adhesion of MDA-MB-435 cells. In kind it is functional, cell-based. Conditions: Homo sapiens.
In turn, `CC(=O)N[C@H](Cc1ccccc1)C(=O)N[C@@H](C(=O)N[C@H](Cc1ccccc1)C(=O)N[C@H](CCCN=C(N)N)C(=O)N[C@@H](C(=O)N[C@H](CC(N)=O)C(=O)N[C@H](CCC(N)=O)C(=O)N[C@H](CC(C)C)C(=O)N[C@@H](C(=O)NCC(=O)N[C@H](CCC(N)=O)C(=O)N[C@H](Cc1ccccc1)C(N)=O)C(C)C)C(C)C)C(C)C` came in with a half-maximal inhibitory concentration (IC50) of 16 µM. With `NC(=O)C[C@@H]1NC(=O)[C@@H](N)CSSC[C@@H](C(=O)O)NC(=O)[C@H](CCCN=C(N)N)NC(=O)CNC1=O` (H-CNGRC-OH; disulfide 1-5) the figure was above 300 µM. Under `CC(C)[C@@H]1NC(=O)[C@H](CC(N)=O)NC(=O)[C@@H](N)CSSC[C@@H](C(=O)O)NC(=O)[C@H](CCCN=C(N)N)NC1=O` (H-CNVRC-OH; disulfide 1-5) stands above 300 µM. With H-FQGVLQAVRFVF-OH the figure was 300 µM. H-FQGVLQDVRFVF-OH showed an IC50 of 13 µM.

H-FQGVLQNARFVF-OH returned an IC50 above 300 µM. H-FQGVLQNLRFVF-OH: the midpoint of inhibition, the IC50, lay at 17 µM.

Turning to H-FQGVLQNVAFVF-OH, the IC50 was above 300 µM. Under H-FQGVLQQVRFVF-OH stands 27 µM.

As usually defined, the IC50 is the concentration that gives 50% inhibition. The low end stands for greater potency, the high end for weaker potency.

(Values after ChEMBL document CHEMBL1137392, “Conformational analysis of an alpha3beta1 integrin-binding peptide from thrombospondin-1: implications for antiangiogenic drug design” (J Med Chem, 2006).)
